For data set [1], the target named is T1, human ETA receptors (Homo sapiens, UniProt P25101).
T1 construct: endogenously expressed human ETA receptors in SK-N-MC cells; host or cells: SK-N-MC cells
T1 sequence (P25101 21-427): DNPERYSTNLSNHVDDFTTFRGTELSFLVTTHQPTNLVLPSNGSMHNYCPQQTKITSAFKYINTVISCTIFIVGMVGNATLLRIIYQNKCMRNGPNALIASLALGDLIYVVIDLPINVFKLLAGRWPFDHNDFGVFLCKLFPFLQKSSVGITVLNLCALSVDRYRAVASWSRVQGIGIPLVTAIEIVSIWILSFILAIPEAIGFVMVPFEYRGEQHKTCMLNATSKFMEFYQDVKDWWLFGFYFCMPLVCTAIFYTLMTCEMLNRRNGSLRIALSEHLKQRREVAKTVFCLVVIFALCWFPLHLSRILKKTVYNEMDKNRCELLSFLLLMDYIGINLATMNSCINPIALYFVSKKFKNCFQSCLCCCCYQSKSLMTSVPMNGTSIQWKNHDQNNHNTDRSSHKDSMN
The data set can be described thus: In vitro antagonistic effect on human ETA receptors (Ca2+ fluorescence, SK-N-MC cells). Format: cell-based. How it is done: The antagonistic activity of the compounds on endogenously expressed human ETA receptors in SK-N-MC cells was assessed by measuring the effects of the compounds on changes in cytoplasmic Ca^2+ ion signaling induced by an agonist of human ETA receptor using a fluorescence assay. The functional activity of the ETA receptor antagonistic effect was tested at Eurofins-Cerep SA according to current standard operating procedures.
• 1. Cells were suspended in Dulbecco's modified Eagle medium solution (DMEM, Invitrogen) supplemented with 1% FCSd and then distributed at a density of 5×10^4 cells/well in 384 plates (100 μL/well). • 2. Hank's Balanced Salt Solution (HBSS, Invitrogen) supplemented with 20 mM 4-(2-hydroxyethyl) piperazine-1-ethanesulfonic acid (Hepes, Invitrogen) (pH 7.4) was mixed with the fluorescent probe (Fluo4 NW, Invitrogen) and added to each well. Equilibrated with the cells for 60 minutes at 37° C. and then for 15 min at 22° C. • 3. The assay plate was placed in a microplate reader (CellLux, PerkinElmer). DMSO solution of the test compound and the positive control in appropriate concentration or HBSS buffer was added. After 5 minutes, 1 nM endothelin-1 or HBSS buffer (basal control) was added. Then the change in fluorescence intensity was measured. The fluorescence intensity is in proportion to the Ca^2+ ion concentration of the free cytosol. • 4. […] The standard positive control was BQ-123 and several concentrations were tested in each experiment and the data was analyzed using Prism to produce a concentration-response curve to calculate the IC50 values of the compounds. • 6.

The nature of data set [2]: Pharmacokinetic evaluation in rats. It is filed as in vivo, SD rats. How it is done:
The animals used in this study were SD male rats. The LC/MS/MS method was applied to quantify the plasma drug concentrations in rats at different time points after administration of the test compound intravenously or orally by gavage in order to evaluate the pharmacokinetic characteristics of the test compound in rats.
Sprague Dawley (SD) rats (male, 200-300 g, 7-10 weeks old, Beijing Vital River or Shanghai SLAC).
A clear solution of the test compound was administered to SD rats by tail vein injection (overnight fasting) or oral gavage (overnight fasting). At 0 hour (before administration through tail vein injection) and 0.0833, 0.25, 0.5, 1, 2, 4, 6, 8 and 24 hours after administration through tail vein injection, 200 μL of blood was collected by jugular venipuncture into anticoagulation tubes supplemented with EDTA-K2 (Jiangsu Kangjian Medical Supplies Co., Ltd.). The mixture in the anticoagulation tube was vortexed thoroughly at 4° C. and then centrifuged at 13,000 rpm for 10 minutes to obtain the plasma. At 0 hours (before administration by oral gavage) and 0.5, 1, 2, 4, 6, 8 and 24 hours after administration by oral gavage, 200 μL of blood was collected by jugular venipuncture into anticoagulation tubes supplemented with EDTA-K2 (Jiangsu Kangjian Medical Supplies Co., Ltd.). The mixture in the anticoagulation tube was vortexed thoroughly and the plasma was then centrifuged at 13,000 rpm for 10 minutes to obtain the plasma. Blood concentrations were determined by LC/MS/MS and the relevant pharmacokinetic parameters were calculated using WinNonlin™ Version 6.3 (Pharsight, Mountain View, CA) pharmacokinetics software with a non-compartmental model linear-log trapezoidal method.

For orientation: IC50 means the concentration needed to halve the response being measured. Higher therefore signals a need for much substance. For the compound `COCCNS(=O)(=O)Nc1ncnc(OCCOc2ncc(Br)cn2)c1-c1ccc2c(c1)OCO2`, in data set [1], the “In vitro antagonistic activity against the human ETA receptor (in words)” value is “very high” and the “Selectivity for ETA over ETB” value is 20,000 fold. In addition, in data set [1] (SK-N-MC cells, 1 nM endothelin-1), the 50% inhibitory concentration (IC50) was 1.6 nM. Also, the “ETA/ETB Selectivity” value in data set [1] (table value) turned out to be 20000.
With `COCCNS(=O)(=O)Nc1ncnc(OCCOc2ncc(Br)cn2)c1-c1ccc2c(c1)OCO2` [Compound of formula (I)], in data set [2] (intravenous injection 2 mg/kg), the “Area under the drug concentration-time curve” value was 16.09 µM·h. The same compound displayed a Plasma clearance in data set [2] (intravenous injection 2 mg/kg, 2 mg/kg) of 3.71 mL/min/kg. Besides, in data set [2] (oral 10 mg/kg), the “Area under the drug concentration-time curve” value worked out at 60.22 µM·h, the Peak concentration stood at 31.99 µM and the Peak time turned out to be 0.25 h. The Bioavailability in data set [2] (oral 10 mg/kg, 10 mg/kg) is 74.9%.

These data come from patent US12297192B2, “Crystal form of pyrimidine sulfonamide compound and preparation method therefor” (WUXI BIOCITY BIOPHARMACEUTICS CO., LTD., priority 2019, dated 2025).
